Reference: patent US12005039B2, “Methods and compositions relating to lipokines for treating metabolic disorders” (Joslin Diabetes Center, Inc., priority 2018, dated 2024)

Assays:
[1] = system: isolated mouse extensor digitorum longus (EDL); experiment: 3H-2-deoxyglucose uptake in isolated EDL muscle; conditions: 300 ng/mL, 1 hour, vs vehicle
Experimental: (§1) For experiments measuring in vivo bioluminescent fatty acid uptake in skeletal muscle, ACTA1cre^+/− mice (Stock no. 006139) were bred with Rosa(stop)Luc^+/+ (Stock no. 005125) (Jackson Laboratory). Experiments measuring skeletal muscle glucose uptake in isolated skeletal muscle glucose uptake were performed in 6 week old, female, CD-1 IGS mice (Charles River Laboratories).
(§2) Isolated skeletal muscle glucose uptake was measured as previously described (Hayashi et al., 1998). Briefly, EDL or soleus muscles were dissected from 6 wk old female CD-1 mice, mounted, and incubated in Krebs-Ringer bicarbonate buffer (KRB) pH 7.4 containing 2 mM pyruvate for 60 min. Both EDL and soleus were incubated with vehicle or 300 ng/mL of 12,13-diHOME. Following treatment, glucose transport activity was measured for an additional 10 min.
(§3) Glucose is an important fuel source utilized during exercise. Accordingly, assays were performed to determine whether 12,13-diHOME increased glucose uptake in skeletal muscle. […] To confirm these findings, isolated mouse soleus and extensor digitorum longus (EDL) skeletal muscles were incubated with either vehicle or 12,13-diHOME for 1 hour.

[2] = Respiratory exchange ratio and energy expenditure by CLAMS in acutely treated mice; type: in vivo; conditions: wild-type mice, acute injection 1 μg/kg body weight i.v., CLAMS 4 h at room temperature, vs vehicle
Experimental: (§4) For measurements of respiratory exchange ratio (RER) and energy expenditure, mice were placed in metabolic chambers and injected intravenously with 1 μg/kg body weight 12,13-diHOME in 0.1% BSA PBS or vehicle and then monitored in the Comprehensive Laboratory Animals Monitoring System (CLAMS) at room temperature (22° C.) for 4 h.
A major source of energy for the working skeletal muscles during exercise comes from the uptake and oxidation of fatty acids. To determine whether 12,13-diHOME increases fatty acid uptake and oxidation in skeletal muscle in vivo, a mouse model. ACTA1Cre+/−Rosa(stop)Luc+/−mice, was generated that constitutively expressed a bioluminescent reporter in skeletal muscle. Mice were injected intravenously with FFA-SS-Luc, which is a fatty acid conjugated to luciferin (Henkin et al., 2012; Liao et al., 2005), in the presence of 12,13-diHOME or a vehicle control. […] These surprising in vivo data provided a potential physiological function for the exercise-induced increases in 12,13-diHOME.

[3] = system: differentiated C2C12 cells; experiment: 14C-palmitic acid uptake and oxidation in C2C12 cells; type: cell-based; conditions: 1.5 μM, 15 min, vs vehicle
Experimental: (§5) Cells were housed at 37° C., 95% humidity and 5% CO2. C2C12 myoblasts (ATCC; passages 4-7) were maintained in DMEM containing 10% FBS and 1% penicillin/streptomycin. Differentiation was induced by incubating the cells in DMEM containing 2% horse serum and 1% penicillin/streptomycin for 4 days. 3T3-LI adipocytes (ATCC; passages 4-7) were maintained in DMEM containing 10% FBS and 1% penicillin/streptomycin. Differentiation was induced by incubating the cells in DMEM containing […] and 1% penicillin/streptomycin with 400 ng/mL dexamethasone, 1 μg/mL insulin, and 115 μg/mL IBMX for days 0-2, 1 μg/mL insulin for days 2-4, and DMEM with 10% FBS and 1% penicillin/streptomycin only days 4-8.
(§6) mRNA levels of were measured by quantitative RT-PCR using primers (Table 4). Fatty acid uptake and oxidation into differentiated C2C12 muscle cells and 3T3L1 adipocytes measured using ^14C-labeled palmitic acid uptake and conversion of ^14C-labeled palmitic acid into CO2 as previously described (Townsend et al., 2013). Cells were treated with 1.5 μM 12,13-diHOME or methyl acetate vehicle for 15 min, similar to previous studies (Lynes et al., 2017). Oxygen consumption rates (OCR) were measured in starved (1 hour) C2C12 skeletal muscle cells treated with 1.5 μM 12,13-diHOME or methyl acetate vehicle for 15 min and OCR measured in 200 μM palmitate (Seahorse XF24) (Vernochet et al., 2012). […]

3T3-L1 cells [4] = experiment: Oxygen consumption rate in 3T3-L1 cells; type: cell-based; conditions: any condition (data not shown)
C2C12 cells = experiment: Oxygen consumption rate (Seahorse XF24) in C2C12 cells; type: cell-based; conditions: 1.5 μM, 15 min, 200 μM palmitate, vs vehicle
Experimental: (§7) mRNA levels of were measured by quantitative RT-PCR using primers (Table 4). Fatty acid uptake and oxidation into differentiated C2C12 muscle cells and 3T3L1 adipocytes measured using ^14C-labeled palmitic acid uptake and conversion of ^14C-labeled palmitic acid into CO2 as previously described (Townsend et al., 2013). Cells were treated with 1.5 μM 12,13-diHOME or methyl acetate vehicle for 15 min, similar to previous studies (Lynes et al., 2017). Oxygen consumption rates (OCR) were measured in starved (1 hour) C2C12 skeletal muscle cells treated with 1.5 μM 12,13-diHOME or methyl acetate vehicle for 15 min and OCR measured in 200 μM palmitate (Seahorse XF24) (Vernochet et al., 2012).
To determine if 12,13-diHOME regulated mitochondrial function in muscle, differentiated C2C12 myotubes were incubated with 12,13-diHOME and then analyzed for mitochondrial respiration. 12,13-diHOME incubation increased basal oxygen consumption rate (OCR) and respiratory capacity in C2C12 cells (FIGS. 4A and 4B).

skeletal muscle = experiment: In vivo bioluminescent fatty acid uptake in skeletal muscle (FFA-SS-Luc); conditions: ACTA1Cre+/- Rosa(stop)Luc+/- mice
Experimental: as §1
For experiments measuring in vivo bioluminescent fatty acid uptake in skeletal muscle, ACTA1cre^+/− mice (Stock no. 006139) were bred with Rosa(stop)Luc^+/+ (Stock no. 005125)(Jackson Laboratory). Male offspring carrying the cre allele were injected retro-orbitally with 1 μg/kg body weight 12,13-diHOME in 0.1% BSA PBS or methyl acetate as a vehicle and all mice were co-injected with 2 μm FFA-SS-Luc (Intrace Medical). This dose is based on the circulating concentration of 12,13-diHOME in mice that are housed at room temperature, 3 ng/mL (10 nM). After an acute bout of exercise, 12,13-diHOME increased to 10-30 ng/mL (30-100 nM). This is considerably below the reported cytotoxic dose of 100 mg/kg body weight (Sisemore et al., 2001). Mice were anesthetized and imaged (IVIS Spectrum CT) using sequential 30 second exposures for 12 min.
A major source of energy for the working skeletal muscles during exercise comes from the uptake and oxidation of fatty acids. […]

[5] = Sisemore et al., 2001; cited from earlier work
3T3-L1 cells [6] = experiment: 14C-palmitic acid uptake and oxidation in 3T3-L1 cells; type: cell-based; conditions: 1.5 μM, 15 min, vs vehicle
Experimental: as §5, §6

[7] = system: mitochondrial and fatty acid oxidation genes; experiment: Expression of mitochondrial and fatty acid genes in tissues after acute injection (qRT-PCR); conditions: mice injected in vivo
Experimental: as §7
To identify a mechanism for increased fat utilization with 12,13-diHOME in skeletal muscle, assays were performed to determine the effects of injecting mice with 12,13-diHOME in vivo on the expression of mitochondrial and fatty acid oxidation genes in tibialis anterior muscle. […] However, there was no effect of 12,13-diHOME on mitochondrial or fatty acid oxidation genes in scWAT, pgWAT, liver, or BAT (FIGS. 6D-6G). These findings were consistent with the data showing that 12,13-diHOME regulates fatty acid metabolism in skeletal muscle.

[8] = system: differentiated C2C12 myotubes; experiment: 3H-2-deoxyglucose uptake in C2C12 cells; type: cell-based; conditions: 1.5 mM, 15 min, vs vehicle
Experimental: 2-deoxyglucose uptake in C2C12 cells was measured as previously described (Nedachi and Kanzaki, 2006). Briefly, differentiated C2C12 myotubes were serum starved for 3 h in DMEM before any treatment. Cells were incubated with 12,13-diHOME ([…]; 15 min) or insulin (100 nM; 15 min). After stimulation, cells were washed with buffer containing 140 mM NaCl, 20 mM Hepes-Na (pH 7.4), 5 mM KCl, 2.5 mM MgSO4, and 1.0 mM CaCl2. Glucose transport was determined by the addition of ^3H-2-deoxyglucose for glucose for 10 min on ice. Cells were washed with ice-cold saline solution and harvested in 0.05 N NaOH to determine net accumulation of [^3H]-2-deoxyglucose (Nedachi and Kanzaki, 2006).
as §3

[9] = RER by CLAMS in exercise-trained iBAT- mice treated with 12,13-diHOME; type: in vivo; conditions: iBAT- mice exercise trained 3 weeks, acutely treated with 12,13-diHOME
Experimental: For iBAT-mice, mice were anesthetized using isofluorane. iBAT was surgically removed and the artery immediately cauterized. Sham mice underwent the same surgical procedure, but iBAT was not removed.
as §4
Therefore, an analysis of sham and iBAT-mice was performed to determine whether increased 12,13-diHOME with training regulated fat utilization in vivo. Sham and iBAT-mice were sedentary or exercise trained for 3 weeks and subsequently, the RER was measured in metabolic cages. […] In contrast, there was no effect of exercise training on RER in the iBAT-mice.

isolated mouse soleus = experiment: 3H-2-deoxyglucose uptake in isolated soleus muscle; conditions: 300 ng/mL, 1 hour, vs vehicle
Experimental: as §1, §2, §3

CCCCCC(O)C(O)C/C=C\CCCCCCCC(=O)O (stereo not drawn) [12,13-diHOME, 12,13-dihydroxy-9Z-octadecenoic acid]
rate of glucose uptake (3H-2DG) [1]: no effect
energy expenditure [2]: independent of any change in energy expenditure
respiratory exchange ratio (RER) [2]: decreased
fatty acid oxidation (14C palmitic acid to CO2) [3]: significant increase
fatty acid uptake (14C palmitic acid) [3]: significant increase
OCR (3T3-L1 cells [4]): did not increase OCR under any condition
ATP turnover (C2C12 cells): did not affect
basal oxygen consumption rate (OCR) (C2C12 cells): increased
maximal uncoupled respiration (C2C12 cells): did increase
respiratory capacity (C2C12 cells): increased
fatty acid uptake in skeletal muscle (luciferase activity) (skeletal muscle; 1 μg/kg body weight injected with FFA-SS-Luc, vs vehicle): increased fatty acid uptake in skeletal muscle
time fatty acid uptake remained significantly elevated above vehicle (skeletal muscle; 1 μg/kg body weight, after injection): 10 min
reported cytotoxic dose [5]: 100 mg/kg body weight
fatty acid oxidation (14C palmitic acid to CO2) (3T3-L1 cells [6]): did not increase
fatty acid uptake (14C palmitic acid) (3T3-L1 cells [6]): did not increase
expression of mitochondrial or fatty acid oxidation genes ([7]; BAT): no effect
expression of mitochondrial and fatty acid genes ([7]; heart): increased expression of Nrf1 and Nrf2
expression of mitochondrial or fatty acid oxidation genes ([7]; liver): no effect
expression of mitochondrial or fatty acid oxidation genes ([7]; pgWAT): no effect
expression of mitochondrial or fatty acid oxidation genes ([7]; scWAT): no effect
expression of mitochondrial and fatty acid genes ([7]; tibialis anterior muscle): increased expression of several genes involved in mitochondrial activity and biogenesis (citrate synthase, Nrf1, Nrf2), and fatty acid uptake (Cd36, Fatp4)
glucose uptake (3H-2DG) [8]: did not affect glucose uptake
RER [9]: significantly decreased
rate of glucose uptake (3H-2DG) (isolated mouse soleus): no effect
